According to a melting point compilation (Tetko et al.; mined from patent text by program, amines drawn as free bases though some values may be those of a salt):

Row | SMILES | melting point [°C]
1 | N#Cc1cc(F)ccc1O | 121 to 122
2 | CCc1noc(-c2ncn3c2c(=O)n(CC)c2ncccc23)n1 | 221
3 | Cc1cc(N2CCC(N3CCCC3C)C2)ccc1C(=O)NC1CCOCC1 (stereo not given) | 147
4 | Cc1cscc1NC(=S)Nc1cccc(Cl)c1N | 298 to 305
5 | Cn1ncc2nn(-c3cccc(C(F)(F)F)c3)c(=O)c(Cl)c21 | 156 to 158
6 | O=C(CCCl)Nc1ccc(F)c(F)c1 | 76
7 | CS(=O)(=O)c1ccnc(-c2nc(=O)c3ccccc3s2)c1 | 300 to 301
8 | CCC(CC)(CCC#N)C(NC(=O)c1ccc(Cl)cc1)NC(=N[N+](=O)[O-])Nc1cccnc1 (stereo not given) | 100 to 110
9 | CN1NC(=O)C2C(C1=O)C2(C)C (stereo not given) | 151 to 154
10 | O=C(c1ccc(F)cc1)N1CCCC(c2nc(-c3cccc(F)c3)no2)C1 (stereo not given) | 86 to 89
11 | Cc1cccc(-c2nc(N)sc2-c2ccnc(-c3ccc(CN4CCOCC4)cc3)c2)n1 | 190 to 192
12 | CC(C)N1CC(C(S)Oc2cccc3cnccc23)OC1=O (stereo not given) | 237 to 239
13 | CCOC(=O)Cc1cc2c(N)cccc2cn1 | 90
14 | CN1CCC(c2cccc(C(F)(F)F)c2)(C(C)(C)O)CC1 | 111 to 112
15 | COc1cc(C)nc(NC(=O)NS(=O)(=O)c2cccc3c2OCCO3)n1 | 203 to 205
16 | CCOC(=O)c1c(C)cc2cnc(C)nc2c1C | 84 to 86
17 | CN1C(=O)C2CC(c3ccc(N)cc3)(C2)C1=O | 197 to 198
18 | Cc1ccc2c(c1)CC(=O)c1cc(F)ccc1S2 | 103 to 104
19 | CC(=O)OCc1c(Br)cccc1N1CCc2c(cc3n2CCCC3)C1=O | 176 to 178

The next lines start with the values.

Row | melting point [°C] | SMILES
20 | 94 to 95.5 | CCOc1nccc(CC(=O)O)c1NC(=O)OC(C)(C)C
21 | 138 to 139 | CCn1nnc(C(C=O)=C(c2ccc(F)cc2)c2ccc(F)cc2)n1
22 | 183 to 185 | COc1cccc(-n2c(-c3ccccc3)cc(=O)c(C)c2-c2ccccc2)c1
23 | > 230 | NS(=O)(=O)c1ccc(NN=C2C(=O)Nc3ccc(C(=O)NCCn4ccnc4)cc32)cc1
24 | 70 to 72 | CCCCCCCCNC(=O)CC(=O)c1c2ccccc2cc2ccccc12
25 | 275 to 278 | CC1C=C(C(=O)C(C#N)C(=O)Nc2ccccc2)c2cccc3c2=C1C1=CN=NC=31 (stereo not given)
26 | 210 to 213 | CC1CN(c2c(F)cc3c(=O)c(C(=O)O)cn(C4CC4)c3c2Cl)CC1NC(=O)OC(C)(C)C (stereo not given)
27 | 99 to 100 | CC(C)(C)OC(=O)N[C@@H](CC(=O)OCc1ccccc1)C(=O)NCCc1ccc(C(=O)OCc2ccccc2)cc1
28 | 73 to 75 | Cc1ccc(C)n1-c1ccccc1OCC(O)CNC(C)C (stereo not given)
29 | 148 to 150 | O=S(=O)(NS(=O)(=O)c1ccc(CCBr)cc1)c1ccccc1
30 | 276 to 279 | CC(=O)Nc1ccc2c(c1)c(C1=C(c3cn(C)c4ccccc34)C(=O)NC1=O)cn2C
31 | 163 to 167 | COC1=Cc2ccccc2C(=CC(=O)O)c2ccsc21
32 | 100 | CNC(=O)[C@@H]1C[C@@H](OCc2ccccc2)CN1S(=O)(=O)c1ccc(Cl)c(COc2cccc3c(-n4ccnc4)cc(C)nc23)c1Cl
33 | 118 to 119 | CCOC(=O)C1=C(C)NC(C)=C(C(=O)OCC)C1c1cc(Br)ccc1F
34 | 186 | CCc1ccc(-c2oc3cccc4c3c2C=CC4=O)cc1
35 | 151 to 154 | c1ccc2cc(CC[C@H]3CNCCN3)ccc2c1
36 | 103 | CCOC(=O)COc1ccc(C(=O)c2ccoc2)c2ccccc12
37 | 87 to 88 | CC(C)(C)[Si](OCCCc1ccc(OCC(=O)O)cc1)(c1ccccc1)c1ccccc1
38 | 168 to 170 | CN(CCOc1ccc(CC(F)C(N)=O)cc1)c1nc2ccccc2o1 (stereo not given)
39 | 136 to 137 | Cc1ccccc1CCC(=O)N(C)C(C)C(O)c1ccccc1 (stereo not given)
40 | 143 to 145 | CC(C)C(Oc1ccccc1)C(=O)OC1CC(O)C=C2C=CC(C)C(CCC3CC(O)CC(=O)O3)C21 (mixture of isomers)
